# Source: US20250099485A1, “COMPOSITIONS FOR PROMOTING HAIR GROWTH” (ESTETRA SRL, priority 2021, published 2025)
# Experiments:
# [1] = tested on: fibroblasts isolated from female C57Bl1/6 mice; assay: Fibroblast monolayer scratch assay, mouse; type: cell-based; conditions: 10^−7 M, compared with E2
# Procedure: Confluent wells of both primary keratinocytes and fibroblasts were subjected to a highly validated scratch wounding procedure (using a 1 mL sterile filter tip). Post-scratching, cells were rinsed with DPBS and cell-specific media containing treatments added to each well. Cells were imaged on a ptychographic live cell imaging platform (Livecyte 2TM, Phasefocus) for 24-48 hours. Automated tracking of individual unlabeled cells will be combined with 3D cell measurements to quantify a range of wound-relevant cell parameters including scratch closure rate.
# Dose range finding experiments were conducted with E4 (10^−10M to 10^−6M) and E2 with and without Mitomycin C (MMC, to inhibit proliferation) using vehicle as negative controls.
# The assay was performed in the phenol red-free cell culture media containing charcoal stripped fetal bovine serum, using fibroblasts isolated from female C57Bl1/6 mice and from surplus abdominal skin donated by three female donors.
# [2] = tested on: human hair follicles (HF); assay: Hair follicle organ culture: hair shaft elongation ex vivo; type: cell-based; conditions: 300 nM, 3 μM, 30 μM, n=4 female donors
# Procedure: 12-44 full-length frontotemporal hair follicles (HF) were obtained from four human female donors >50 years old. Donors were caucasian female subjects […], respectively (Donor 1: 12 temporal anagen HFs; Donor 2: 29; Donor 3: 44; Donor 4: 32). After microdissection from skin as described (Edelkamp et al., Methods Mol Biol, 2020, 2154:105-119; and Langan et al., Exp Dermatol, 2015, December; 24(12):903-1), HFs were placed in adequate culture medium and allowed a 24 h rest period to allow them to recover from the trauma of microdissection. Test substance (either vehicle (0.3% EtOH) or E4 at concentrations of 30 μM, 3 μM or 300 nM) was added to the medium at the end of the 24 h. Total culturing time was 5-7 days depending on the studied parameters and the experimental question. The experimental design for the hair follicle organ culture experiment is depicted in FIG. 12. […]
# To determine the HF length, each HF was measured from the end of the bulb connective tissue sheath to the end of the distal outer root sheath (ORS), using a digital light microscope at 50× magnification (VHX 900 Keyence Corporation, Osaka, Japan) and the affiliated software (Edelkamp et al., Methods Mol Biol, 2020, 2154:105-119; and Langan et al., Exp Dermatol, 2015, December; 24(12):903-1). […] Elongation is expressed as millimeters of growth and/or as percentage elongation from the baseline measurement.
# [3] = tested on: versican in dermal papilla (DP); assay: Hair follicle organ culture: versican expression, DP inductivity; type: cell-based, human; conditions: all tested concentrations, vs vehicle
# Procedure: (§1) 12-44 full-length frontotemporal hair follicles (HF) were obtained from four human female donors >50 years old. Donors were caucasian female subjects […], respectively (Donor 1: 12 temporal anagen HFs; Donor 2: 29; Donor 3: 44; Donor 4: 32). After microdissection from skin as described (Edelkamp et al., Methods Mol Biol, 2020, 2154:105-119; and Langan et al., Exp Dermatol, 2015, December; 24(12):903-1), HFs were placed in adequate culture medium and allowed a 24 h rest period to allow them to recover from the trauma of microdissection. Test substance (either vehicle (0.3% EtOH) or E4 at concentrations of 30 μM, 3 μM or 300 nM) was added to the medium at the end of the 24 h. Total culturing time was 5-7 days depending on the studied parameters and the experimental question. The experimental design for the hair follicle organ culture experiment is depicted in FIG. 12. Longer term culture experiments may be used to analyze the capacity to delay the onset of catagen.
# Versican, a large chondroitin sulfate proteoglycan molecule, is expressed in DP in anagen HFs and diminishes in catagen HFs and its expression correlates with hair inductive properties (Yang, J Dermatol Sci 2010). Versican intensity was analyzed in the DP.
# DP fibroblasts = assay: Hair follicle organ culture: DP fibroblast emigration; type: cell-based, human; conditions: vs vehicle
# Procedure: as §1
# The DP resident fibroblasts are subjected to migration in the transition between anagen and catagen phase (Hawkshaw et al., Journ of Invest Dermatol, 2015, 135(8):2129-2132). In catagen onset, DP fibroblasts emigrate to the dermal cup through the DP stalk, whereas at anagen induction, they immigrate back in the DP. Quantifying the number of DP fibroblasts present in the DP stalk and in the DP (Kloepper et al., Exp Dermatol, 2010, March; 19(3):305-12) is therefore a direct readout for anagen induction or catagen promotion. K 15 expression—Stem cells.
# K15 positive cells = assay: Hair follicle organ culture: K15 expression, stem cells; type: cell-based, human; conditions: vs vehicle
# Procedure: as §1
# K15 is a type I cytokeratin expressed in HF bulge stem cells and their progeny (Purba et al., BioEssays, 2014). It is expressed in the bulge, infra-bulge and suprabulbar ORS. Bulge stem cells are identified using K15 expression, cellular morphology and anatomical localization (below the sebaceous glands, at the area where the arrector pili muscle attaches to the HF). K15 expression was analyzed in the bulge basal layer and in the suprabulbar ORS, and proliferation of K15 positive cells was evaluated in combination with Ki67 immunofluorescence staining.
structure (smiles),measurement,setting,value
"C[C@]12CC[C@@H]3c4ccc(O)cc4CC[C@H]3[C@@H]1[C@@H](O)[C@@H](O)[C@@H]2O [E4, 1,3,5 (10)-estratrien-3,15alpha,16alpha,17beta-tetrol]","in vitro wound closure, mouse fibroblasts scratch assay",[1],promotes in vitro wound closure to a similar extent as E2
same,hair shaft production,[2],did not modify
same,versican expression in DP cells,[3],tendentially increased
same,density of cells in the inductive dermal cup,"DP fibroblasts; 300 nM, 3 μM, 30 μM",no significant impact
same,total number of cells in the DP stalk,DP fibroblasts; 300 nM,significantly reduced
same,total number of cells in the DP stalk,DP fibroblasts; 3 μM,significantly reduced
same,density of cells in the DP stalk,DP fibroblasts; all concentrations,tendentially decreased
same,density of cells in the DP,DP fibroblasts; all tested concentrations,did not strikingly affect
same,percentage of K15 positive cells in the suprabulbar ORS,"K15 positive cells; 300 nM, 3 μM, 30 μM",did not have any effect
same,decreased proliferation of K15 positive cells in the suprabulbar ORS (Ki-67),K15 positive cells; 300 nM,significantly
same,increased proliferation of K15 positive cells in the bulge basal layer (Ki-67),K15 positive cells; 300 nM,tendentially
same,decreased proliferation of K15 positive cells in the suprabulbar ORS (Ki-67),K15 positive cells; 3 μM,tendentially
same,increased proliferation of K15 positive cells in the bulge basal layer (Ki-67),K15 positive cells; 3 μM,tendentially
same,percentage of K15 positive cells in the bulge basal layer,K15 positive cells; 3 μM,significantly decreased
same,increased proliferation of K15 positive cells in the bulge basal layer (Ki-67),K15 positive cells; 30 μM,significantly
